The values that follow come from patent publication US9592307B2, “Compound and photoacoustic imaging contrast medium containing the compound” (CANON KABUSHIKI KAISHA, priority 2012, dated 2017).

Data set [1] has as its system Colon 26 mouse colon cancer cells containing artificially introduced HER2 genes. Nature of the data set: Tumor accumulation of PEG including capture molecule, Colon 26 (HER2) versus Colon 26 (WT) tumors. The class given is in vivo. The note with it: intravenous, 13 nmol in terms of ICG, 24 hours after administration. An excerpt:
In the evaluation of tumor accumulation, female outbred line BALB/c Slc-nu/nu mouse (6 week-old at the time of purchase) (Japan SLC Inc.) was used. The mouse was adapted to an environment in which a diet and drinking water were able to be consumed freely for a week before the mouse was transplanted a tumor, while standard diet and bed were employed. About 1 week before an imaging experiment, 1×10^6 of Colon 26 mouse colon cancer cells (RIKEN) were subcutaneously injected into each of the right shoulder and the right thigh of the mouse and 1×10^6 of Colon 26 mouse colon cancer cells containing artificially introduced HER2 genes were subcutaneously injected into each of the left shoulder and the left thigh of the mouse. All tumors became established until the experiment and the weights of the mice were 17 to 22 g. […] The amount of dye in the cancer tissue was quantified by using IVIS (registered trademark) Imaging System 200 Series (XENOGEN) and measuring the fluorescent intensity of the solution of dye extracted from the tumor tissue and the standard solution for calibration in the state of the plastic tube. […]
In addition, ratios of the amount of accumulation into the Colon 26 mouse colon cancer cells containing artificially introduced HER2 genes relative to the amount of accumulation into the Colon 26 mouse colon cancer cells were calculated and are summarized in Table 12. […]

A short description of data set [2]: Retentivity in blood, Colon 26 tumor-bearing mice. The class given is in vivo, mouse. The conditions noted are these: tail vein, 13 nmol dye, 24 hours after administration. How it is done:
In order to examine the retentivity in blood and the tumor accumulation of the compound prepared as described above, M5k-ICG, M10k-ICG, M20k-ICG, M30k-ICG, M40k-ICG, and D20k-ICG2 were administered to tail veins of tumor-bearing mice which had been transplanted a Colon 26 cell line. The amount of administration was specified to be 13 nmol in terms of the amount of dye.
A blood sample was taken from a mouse 24 hours after administration, and the blood, 1% Triron, and DMSO were mixed at 2:9:9 in a plastic tube. The amount of dye in the blood was quantified by using IVIS (registered trademark) Imaging System 200 Series (produced by Caliper Life Science Inc.) and measuring the fluorescent intensity in the state of the plastic tube. The proportion of the amount of migration of the dye to the blood relative to the amount (dye 13 nmol) of administration (% injected dose: abbreviated to % ID) per unit weight of the blood is shown in Table 8 as the retentivity of the compound in blood (% ID/g). […]
An intravenous injection of 100 microliters (13 nmol in terms of dye) of M20k-ICGATT into a tumor-bearing mouse model was performed, where a Colon 26 cell was subcutaneously transplanted into the BALB/c Slc-nu/nu mouse. The accumulation in the Colon 26 cell mass and the blood 24 hours after the administration was evaluated by the method described in Example 12.

The conditions of data set [3]: rat, ICG administered to the blood alone; cited from earlier work.

Ends that are not written are not given here.

For “pe-PEG20: PEG ME-200MA (MW 20,000) modified with ICG and peptide MARSGLGGKGSC (also: conjugated to PEG ME-200MA (20 kDa) together with ICG)”, the “Colon26 (HER2)/Colon26 (WT) Ratio of amount of tumor accumulation” value in data set [1] is reported as 0.76.
Turning to `CC1(C)C(/C=C/C=C/C=C/C=C2\N(CCCCS(=O)(=O)O)c3ccc4ccccc4c3C2(C)C)=[N+](CCCCS(=O)(=O)[O-])c2ccc3ccccc3c21` [ICG, Indocyanine Green], in data set [2], the Retentivity in blood turned out to be 0.16 % ID. In data set [3], the “Time after administration at which photoacoustic signal is reduced to the same level as that of the blood” value is given as “several tens of minutes”.
Consider “pe-PEG40: PEG ME-400MA (MW 40,000) modified with ICG and peptide MARSGLGGKGSC (also: conjugated to PEG ME-400MA (40 kDa) together with ICG)”, for which, in data set [1], the “Colon26 (HER2)/Colon26 (WT) Ratio of amount of tumor accumulation” value is reported as 0.88.
